Results from patent US9469878B2, “Methods of treating cancer comprising targeting NQO1” (The Board of Regents of the University of Texas System, priority 2010, dated 2016).

Key:
[1] = tested on: HMEC 1585 normal human mammary epithelial cells
Procedure: Cells were cultured and treated as described above. […] Experiments were repeated at least three times, and data expressed as relative survival (treated/control×100%) means±SEM. […] The multi-target model was used to describe the shape of relative survival curves. In this model, a final slope (D0) resulting from multiple-event killing and quasithreshold (Dq) doses were used to represent the size or width of the shoulder of the curve. The extrapolation number (n) is also a measure of the width of the shoulder. The three parameters, n, Do, and Dq were related by the expression: loge n=Dq/Do.
Cells were treated with β-lap with or without dicoumarol for 2 h. […] Data were expressed as relative survival (treated/control×100%). Experiments were repeated at least three times, and data expressed as relative survival means±SEM. […] Human mammary epithelial cells were plated in 48 well dishes in growth media containing a 50:50 mixture of MGEM/DME:F12 medium supplemented with insulin, human epidermal growth factor and hydrocortisone.

[2] = tested on: wild-type *1/*1 non-small cell lung cancer (NSCLC) cell lines; assay: LD50 responses of NSCLC cell lines treated with β-Lap; format: cell-based, human; settings: all of the wild-type *1/*1 NSCLC cells, 2 h treatment, 7 days later
Procedure: FIG. 16 depicts NQO1 levels predict response to NQO1 bioactivatable therapies. In (a) LD50 responses of non-small cell lung cancer (NSCLC) cell lines treated with β-Lap for 2 h and harvester 7 days later. LD50 responses were plotted as a function of NQO1 enzymatic levels. The notations, *1/*1 and *2/*2 represent the NQO1 status of each cell line as homozygous wild type (*1/*1) or homozygous polymorphic (*2/*2) genotypes. Note that all heterozygote cells containing one wild-type allele (*1) are wild-type, phenotypically, for NQO1 expression, such that only homozygous *2/*2 or 3/3 are considered non-responsive to NQO1 bioactivatable drugs. Note the high resistance of H596 and H2862 cell lines to β-lapachone compared to all of the wild-type *1/*1 cells with LD50 values less than 5 μM. Note also that *3/*3 SNPs in NQO1 are far more rare than *2/*2 single point mutations in NQO1. In (b), Kaplan-Meier survival curve of mice bearing orthotopic lung tumors implanted with *1/*1 A549 cells. Mice were treated intravenously (5 doses every other day) with β-lap-HPβ-CD or vehicle alone (HPβ-CD). Similar studies with *2/*2 or *3/*3 tumors were performed and these tumors were non-responsive to β-lapachone or other NQO1 bioactivatable drug therapies.

[3] = β-Lap pharmacokinetic (PK) analyses; format: in vivo; settings: athymic nude mice, plasma ng/mL, organs ng/g
Excerpt: FIG. 27 depicts correlative studies of NQO1 expression and β-lap, a bioactivatable drug. (a) NQO1 activity assay (reported as nMoles cyt-c/min/μg protein) in paired tumor (T) and associated normal tissue (N) from human NSCLC patient samples. NQO1 activity was not detectable in normal lung tissue. (b) β-Lap pharmacokinetic (PK) analyses in athymic nude mice. Black circles denote plasma concentrations (ng/mL); other colors denote various organ/tumor concentrations (ng/g). […] (c) NQO1 expression by immunohistochemistry (IHC). Arrowhead denotes NQO1+ prostate cancer cells. Arrow denotes normal prostate gland tissue that have low, or no, detectable NQO1 protein levels.

CC1(C)CCC2=C(O1)c1ccccc1C(=O)C2=O [β-Lap, 3,4-dihydro-2,2-dimethyl-2H-naphtho[1,2-b]pyran-5,6-dione]
LD50 β-Lap [1]: >10 | LD50 [2]: less than 5 μM | Organ/tumor concentrations [3]: elevated levels of the drug in lung
